In ChEMBL document CHEMBL5506015, “Discovery of a Meisoindigo-Derived PROTAC as the ATM Degrader: Revolutionizing Colorectal Cancer Therapy via Synthetic Lethality with ATR Inhibitors” (J Med Chem, 2024):
Activity calls are given as the source filed them. The calls are words filed in the database; no cut-off is given here.

What was measured:
NCI-H358 = assay: Cytotoxicity against human NCI-H358 cells assessed as reduction in cell viability incubated for 48 hrs by MTT assay; details: NCI-H358, 48 h
HCT-116 = assay: Cytotoxicity against human HCT-116 cells assessed as reduction in cell viability incubated for 48 hrs by MTT assay; details: HCT-116, 48 h
SW-620 [1] = assay: Cytotoxicity against human SW620 cells assessed as reduction in cell viability incubated for 48 hrs by MTT assay; details: SW-620, 48 h
RKO = assay: Cytotoxicity against human RKO cells assessed as reduction in cell viability incubated for 48 hrs by MTT assay
A2780 = assay: Cytotoxicity against human A2780 cells assessed as reduction in cell viability incubated for 48 hrs by MTT assay; details: A2780, 48 h
K562 = assay: Cytotoxicity against human K562 cells assessed as reduction in cell viability incubated for 48 hrs by MTT assay; details: K562, 48 h
SW13 = assay: Cytotoxicity against human SW13 cells assessed as reduction in cell viability incubated for 48 hrs by MTT assay; details: SW13, 48 h
COLO 205 = assay: Cytotoxicity against human COLO 205 cells assessed as reduction in cell viability incubated for 48 hrs by MTT assay; details: COLO 205, 48 h
[2] = Cytotoxicity against human HIEC-6 cells assessed as reduction in cell viability incubated for 48 hrs by MTT assay; type: toxicity, cell-based; details: HIEC-6 cells
SW480 = assay: Cytotoxicity against human SW480 cells assessed as reduction in cell viability incubated for 48 hrs by MTT assay; details: SW480, 48 h
LoVo = assay: Cytotoxicity against human LoVo cells assessed as reduction in cell viability incubated for 48 hrs by MTT assay
SW-620 [3] = assay: Downregulation of KDM4B level in human SW620 cells at 1.25 to 10 uM measured after 12 hrs by immunoblot analysis; type: functional, cell-based; details: dose 1.25-10 µM
SW-620 [4] = assay: Downregulation of PROX1 level in human SW620 cells at 1.25 to 10 uM measured after 12 hrs by immunoblot analysis; type: functional, cell-based; details: dose 1.25-10 µM
SW-620 [5] = assay: Effect on ATM mRNA level in human SW620 cells at 2.5 to 10 uM incubated for 12 hr by RT-PCR analysis; type: functional, cell-based; details: dose 2.5-10 µM
SW-620 [6] = assay: Antitumor activity against human SW620 cells xenografted in Balb/c nude mouse model assessed as reduction in tumor load at 25 mg/kg/day administered for 14 days by vernier caliper based analysis; type: functional, organism-based; details: time 14.0 day
SW-620 [7] = assay: Antitumor activity against human SW620 cells xenografted in Balb/c nude mouse model assessed as decrease in cleaved caspase 3 level at 25 mg/kg/day measured after 14 days by Western blot analysis; type: functional, organism-based; details: time 14.0 day
SW-620 [8] = assay: Antitumor activity against human SW620 cells xenografted in Balb/c nude mouse model assessed as necrosis at 25 mg/kg/day measured after 14 days by H and E staining based analysis; type: functional, organism-based; details: time 14.0 day
SW-620 [9] = assay: Antitumor activity against human SW620 cells xenografted in Balb/c nude mouse model assessed as increase in cleaved-caspase 3 level at 25 mg/kg/day measured after 14 days by Western blot analysis; type: functional, organism-based; details: time 14.0 day
SW-620 [10] = assay: Antitumor activity against human SW620 cells xenografted in Balb/c nude mouse model assessed as fibrosis at 25 mg/kg/day measured after 14 days by H and E staining based analysis; type: functional, organism-based; details: time 14.0 day
SW-620 [11] = assay: Antitumor activity against human SW620 cells xenografted in Balb/c nude mouse model assessed as decrease in ATM protein level at 25 mg/kg/day measured after 14 days by Western blot analysis; type: functional, organism-based; details: time 14.0 day
SW-620 [12] = assay: Antitumor activity against human SW620 cells xenografted in Balb/c nude mouse model assessed as decrease in pro-caspase 3 level at 25 mg/kg/day measured after 14 days by Western blot analysis; type: functional, organism-based; details: time 14.0 day
SW-620 [13] = assay: Antitumor activity against human SW620 cells xenografted in Balb/c nude mouse model assessed as increase in gamma-H2AX at 25 mg/kg/day measured after 14 days by Western blot analysis; type: functional, organism-based; details: time 14.0 day
SW-620 [14] = assay: Antitumor activity against human SW620 cells xenografted in Balb/c nude mouse model assessed as inflammatory cell infiltration at 25 mg/kg/day measured after 14 days by H and E staining based analysis; type: functional, organism-based; details: time 14.0 day
SW-620 [15] = assay: Antitumor activity against human SW620 cells xenografted in Balb/c nude mouse model assessed as increase in gamma-H2AX level at 25 mg/kg/day measured after 14 days by Western blot analysis; type: functional, organism-based; details: time 14.0 day
SW-620 [16] = assay: Antitumor activity against human SW620 cells xenografted in Balb/c nude mouse model assessed as decrease in BCL2 protein level at 25 mg/kg/day measured after 14 days by Western blot analysis; type: functional, organism-based; details: time 14.0 day

## CC(C)n1c(=O)n(C)c2cnc3cc(F)c(-c4ccc(OCCCN5CCCCC5)nc4)cc3c21 [AZD-1390]
NCI-H358
  IC50: > 20 µM
HCT-116
  IC50: > 20 µM
SW-620 [1]
  IC50: > 20 µM
RKO
  IC50: > 20 µM
A2780
  IC50: > 20 µM
K562
  IC50: > 20 µM
SW13
  IC50: > 20 µM
COLO 205
  IC50: > 20 µM
[2]
  IC50 at 48 h: > 20 µM
SW480
  IC50: > 20 µM
LoVo
  IC50: > 20 µM

## O=C1CCC(N2Cc3c(NCCCCCCn4cc(CCCN5C(=O)/C(=C6/C(=O)Nc7ccccc76)c6ccccc65)nn4)cccc3C2=O)C(=O)N1 (stereo not drawn)
NCI-H358
  IC50: > 20 µM
HCT-116
  IC50: > 20 µM
SW-620 [1]
  IC50: 7.76 µM
RKO
  IC50: 6.79 µM
A2780
  IC50: 7.47 µM
K562
  IC50: > 20 µM
SW13
  IC50: > 20 µM
COLO 205
  IC50: > 20 µM
[2]
  IC50 at 48 h: > 20 µM
SW480
  IC50: > 20 µM
LoVo
  IC50: 15.1 µM

## O=c1[nH]cc(F)c(=O)[nH]1 [FLUOROURACIL]
NCI-H358
  IC50: > 20 µM
SW-620 [1]
  IC50: 13.8 µM
RKO
  IC50: 3.43 µM
A2780
  IC50: 12.9 µM
K562
  IC50: > 20 µM
SW13
  IC50: > 20 µM
COLO 205
  IC50: 4.54 µM
[2]
  IC50 at 48 h: 18.6 µM
SW480
  IC50: 12.6 µM
LoVo
  IC50: 9.89 µM

## Cc1ncsc1-c1ccc(CNC(=O)[C@@H]2C[C@@H](O)CN2C(=O)[C@@H](NC(=O)OC(C)(C)C)C(C)(C)C)cc1
NCI-H358
  IC50: > 20 µM
HCT-116
  IC50: > 20 µM
SW-620 [1]
  IC50: > 20 µM
RKO
  IC50: > 20 µM
A2780
  IC50: > 20 µM
K562
  IC50: > 20 µM
SW13
  IC50: > 20 µM
COLO 205
  IC50: > 20 µM
[2]
  IC50 at 48 h: > 20 µM
SW480
  IC50: > 20 µM
LoVo
  IC50: > 20 µM

## CN1C(=O)/C(=C2/C(=O)Nc3ccccc32)c2ccccc21 [MEISOINDIGO]
NCI-H358
  IC50: > 20 µM
HCT-116
  IC50: 5.36 µM
SW-620 [1]
  IC50: 9.14 µM
RKO
  IC50: 11.6 µM
A2780
  IC50: 6.57 µM
K562
  IC50: 8.17 µM
SW-620 [3]
  Activity: Active
SW13
  IC50: 12.9 µM
COLO 205
  IC50: 7.55 µM
SW-620 [4]
  Activity: Active
[2]
  IC50 at 48 h: 12 µM
SW-620 [5]
  Activity: inactive
SW480
  IC50: 2.8 µM
LoVo
  IC50: 12.7 µM

## C[C@@H]1COCCN1c1cc(C2([S@](C)(=N)=O)CC2)nc(-c2cc[nH]c3nccc2-3)n1
SW-620 [6]
  Activity: Active
SW-620 [7]
  Activity: Active
SW-620 [8]
  Activity: Active
SW-620 [9]
  Activity: Active
SW-620 [10]
  Activity: Active
SW-620 [11]
  Activity: Active
SW-620 [12]
  Activity: Active
SW-620 [13]
  Activity: Active
SW-620 [14]
  Activity: Active
SW-620 [15]
  Activity: Active
SW-620 [16]
  Activity: Active
